Results taken from article PMC8443589, “Modelling human liver fibrosis in the context of non-alcoholic steatohepatitis using a microphysiological system” (Communications Biology, 2021).

System: liver MPS NASH model (PHH, KC and HSC co-cultures, high fat)
Test: Secreted cytokine/biomarker profile (Luminex, ELISA) of liver MPS NASH model dosed with OCA or ELF
Type: cell-based, human
Description: Fig. 3 Obeticholic acid and Elafibranor both modulate inflammatory and fibrosis phenotype in liver MPS NASH model and phenotype can additionally be reversed with dietary changes. PHH, KC and HSC co-cultures were cultured in the MPS platform under high fat conditions and dosed with varying concentrations of Obeticholic acid (OCA) and Elafibranor (ELF) QD or vehicle control (control) for 10 days, following an initial 4-day pre-culture phase. a The secreted cytokine profile from liver microtissues was compared by Luminex to determine the effects of each compound on the inflammatory profile of the liver with samples analysed at day 8 and 14 of the culture. Data were normalised by Z-transformation to allow comparison of all analytes and presented as a heatmap. b The expression of fibrosis-associated genes was analysed in total RNA from control, OCA and ELF treated liver microtissues (highest concentration for each compound) using Human Fibrosis RT2 Profiler PCR Arrays. Gene expression changes are expressed as a fold change over control. c Liver microtissues were stained for collagen-type I, α-SMA, nuclei (DAPI - blue), phalloidin (green) and imaged by confocal microscopy. Representative images are shown and scale bars 200 µm. d Staining of microtissue was quantified by measuring total fluorescence intensity throughout individual microtissues, each data point represents an average of all the microtissues imaged within an MPS scaffold (min 8, max 20 microtissues). e PHH, KC and HSC co-cultures were cultured in the MPS platform under high fat or lean conditions for 30 days. Cultures either remained in the same type of media throughout or were switched at day 15 from fat media to lean media (Fat -> Lean). Cell culture medium samples were analysed for the presence of IL-6, f MCP-1, g TIMP-1, which were measured by ELISA. h Microtissues were stained with Oil-Red O to determine fat loading during culture period, total stain was quantified by absorbance at 510 nm. All datapoints shown, either as box-whisker plots highlighting mean and min-max or with error bars highlighting means ± SD. All data from a minimum of three independent cultures; statistical comparisons made to control samples unless other comparison shown.
Soluble biomarkers in cell culture medium from the MPS were analysed by enzyme-linked immunosorbent assay (ELISA); IL-6 was measured by Human IL-6 DuoSet ELISA (R&D Systems); MCP-1 was measured by Human CCL2/MCP-1 DuoSet ELISA (R&D Systems); pro-collagen 1 was measured by Human Pro-Collagen I α1 DuoSet (R&D Systems); TIMP-1 was measured by Human TIMP-1 Quantikine ELISA Kit (R&D Systems); Fibronectin was measured by Human Fibronectin DuoSet ELISA (R&D Systems); YKL-40 was measured by Human Chitinase 3-like 1 Quantikine ELISA Kit (R&D Systems); Albumin secretion was measured by Human Albumin AssayMax™ ELISA kit (Assay Pro, St. Charles, MO). For all assays, the manufacturer’s protocol was followed.
Cytokine profiles in cell culture medium samples were also analysed by Luminex array for determination of 38 analytes in total, consisting of cytokines, chemokines, and growth factors using the MILLIPLEX MAP Human Cytokine/Chemokine Magnetic Bead Panel - Premixed 38 Plex (Merck Millipore, USA).
Liver microtissues were cultured for 4 days in HEP-FAT medium, before dosing with obeticholic acid or elafibranor. Both compounds were dissolved in DMSO, diluted in cell culture medium (final DMSO concentration ≤1%) and added to microtissues during a full medium change every two days and in addition on the intervening days compounds were spiked into the media to increase drug concentration back to desired concentrations. Cultures were maintained in the presence of the compound, for a total of 10 days in the presence or absence of TGFβ.

CC[C@H]1[C@@H](O)[C@@H]2[C@H](CC[C@]3(C)[C@@H]([C@H](C)CCC(=O)O)CC[C@@H]23)[C@@]2(C)CC[C@@H](O)C[C@@H]12 [Obeticholic acid]
inflammatory cytokines, including CXCL1, IL1-Rα, IL-6 and MCP-1 (10 days of compound treatment): concentration-dependent decrease
CXCL1 fold change in production compared to control (OCA 0.25 µM QD, D8): 1.039
CXCL10 fold change in production compared to control (OCA 0.25 µM QD, D8): 1.592
FN1 fold change in production compared to control (OCA 0.25 µM QD, D8): 1.009
IL-1RA fold change in production compared to control (OCA 0.25 µM QD, D8): 0.6936
IL-4 fold change in production compared to control (OCA 0.25 µM QD, D8): 1.307
IL-6 fold change in production compared to control (OCA 0.25 µM QD, D8): 0.4788
IL-8 fold change in production compared to control (OCA 0.25 µM QD, D8): 1.109
MCP-1 fold change in production compared to control (OCA 0.25 µM QD, D8): 1.237
MIP-1a fold change in production compared to control (OCA 0.25 µM QD, D8): 1.006
MIP-1b fold change in production compared to control (OCA 0.25 µM QD, D8): 1.009
TIMP-1 fold change in production compared to control (OCA 0.25 µM QD, D8): 0.957
VEGF fold change in production compared to control (OCA 0.25 µM QD, D8): 0.3694
CXCL1 fold change in production compared to control (OCA 0.25 µM QD, D14): 0.7512
CXCL10 fold change in production compared to control (OCA 0.25 µM QD, D14): 1.289
FN1 fold change in production compared to control (OCA 0.25 µM QD, D14): 1.087
IL-1RA fold change in production compared to control (OCA 0.25 µM QD, D14): 0.3915
IL-4 fold change in production compared to control (OCA 0.25 µM QD, D14): 1.067
IL-6 fold change in production compared to control (OCA 0.25 µM QD, D14): 0.3892
IL-8 fold change in production compared to control (OCA 0.25 µM QD, D14): 0.7621
MCP-1 fold change in production compared to control (OCA 0.25 µM QD, D14): 1.11
MIP-1a fold change in production compared to control (OCA 0.25 µM QD, D14): 1.483
MIP-1b fold change in production compared to control (OCA 0.25 µM QD, D14): 1.406
TIMP-1 fold change in production compared to control (OCA 0.25 µM QD, D14): 0.7667
VEGF fold change in production compared to control (OCA 0.25 µM QD, D14): 0.2436
CXCL1 fold change in production compared to control (OCA 5 µM QD, D8): 0.9903
CXCL10 fold change in production compared to control (OCA 5 µM QD, D8): 1.252
FN1 fold change in production compared to control (OCA 5 µM QD, D8): 0.9708
IL-1RA fold change in production compared to control (OCA 5 µM QD, D8): 0.2279
IL-4 fold change in production compared to control (OCA 5 µM QD, D8): 1.215
IL-6 fold change in production compared to control (OCA 5 µM QD, D8): 0.3708
IL-8 fold change in production compared to control (OCA 5 µM QD, D8): 1.325
MCP-1 fold change in production compared to control (OCA 5 µM QD, D8): 0.9348
MIP-1a fold change in production compared to control (OCA 5 µM QD, D8): 0.7425
MIP-1b fold change in production compared to control (OCA 5 µM QD, D8): 0.6949
TIMP-1 fold change in production compared to control (OCA 5 µM QD, D8): 0.8577
VEGF fold change in production compared to control (OCA 5 µM QD, D8): 0.4201
CXCL1 fold change in production compared to control (OCA 5 µM QD, D14): 0.8937
CXCL10 fold change in production compared to control (OCA 5 µM QD, D14): 1.722
FN1 fold change in production compared to control (OCA 5 µM QD, D14): 1.05
IL-1RA fold change in production compared to control (OCA 5 µM QD, D14): 0.2225
IL-4 fold change in production compared to control (OCA 5 µM QD, D14): 1.3182
IL-6 fold change in production compared to control (OCA 5 µM QD, D14): 0.3278
IL-8 fold change in production compared to control (OCA 5 µM QD, D14): 2.0708
MCP-1 fold change in production compared to control (OCA 5 µM QD, D14): 0.6363
MIP-1a fold change in production compared to control (OCA 5 µM QD, D14): 0.8372
MIP-1b fold change in production compared to control (OCA 5 µM QD, D14): 0.7752
TIMP-1 fold change in production compared to control (OCA 5 µM QD, D14): 0.8205
VEGF fold change in production compared to control (OCA 5 µM QD, D14): 0.5877
CXCL1 fold change in production compared to control (OCA 12.5 µM QD, D8): 0.5392
CXCL10 fold change in production compared to control (OCA 12.5 µM QD, D8): 1.011
FN1 fold change in production compared to control (OCA 12.5 µM QD, D8): 0.8305
IL-1RA fold change in production compared to control (OCA 12.5 µM QD, D8): 0.1467
IL-4 fold change in production compared to control (OCA 12.5 µM QD, D8): 0.6477
IL-6 fold change in production compared to control (OCA 12.5 µM QD, D8): 0.3353
IL-8 fold change in production compared to control (OCA 12.5 µM QD, D8): 0.6609
MCP-1 fold change in production compared to control (OCA 12.5 µM QD, D8): 0.4398
MIP-1a fold change in production compared to control (OCA 12.5 µM QD, D8): 1.1281
MIP-1b fold change in production compared to control (OCA 12.5 µM QD, D8): 0.9989
TIMP-1 fold change in production compared to control (OCA 12.5 µM QD, D8): 1.076
VEGF fold change in production compared to control (OCA 12.5 µM QD, D8): 0.449
CXCL1 fold change in production compared to control (OCA 12.5 µM QD, D14): 0.5648
CXCL10 fold change in production compared to control (OCA 12.5 µM QD, D14): 0.9485
FN1 fold change in production compared to control (OCA 12.5 µM QD, D14): 0.8335
IL-1RA fold change in production compared to control (OCA 12.5 µM QD, D14): 0.07151
IL-4 fold change in production compared to control (OCA 12.5 µM QD, D14): 0.8808
IL-6 fold change in production compared to control (OCA 12.5 µM QD, D14): 0.05395
IL-8 fold change in production compared to control (OCA 12.5 µM QD, D14): 1.84
MCP-1 fold change in production compared to control (OCA 12.5 µM QD, D14): 0.2656
MIP-1a fold change in production compared to control (OCA 12.5 µM QD, D14): 0.8417
MIP-1b fold change in production compared to control (OCA 12.5 µM QD, D14): 0.7263
TIMP-1 fold change in production compared to control (OCA 12.5 µM QD, D14): 0.9472
VEGF fold change in production compared to control (OCA 12.5 µM QD, D14): 0.5676
